Test results as given in the supplement of paper PMC5412046.

Legend:
SB.msgc-1 [1] = experiment: viability at highest tested concentration (MAXR) relative to DMSO; higher = less cytotoxic; conditions: SB.msgc-1 (sporadic gastric cancer)
Summary of the method: (§1)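 Viability, normalised to DMSO, is listed either at the highest concentration or as trapezoidal area under the curve. It was measured in patient-derived gastric cancer cells, hereditary or sporadic, exposed for 48 h to 11 threefold-diluted compound concentrations and then assayed with CellTiter-Glo luminescence.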

SB.mhdgc-1 [2] = experiment: as above; conditions: SB.mhdgc-1 (hereditary c.1380delA CDH1 gastric cancer)
Summary of the method: as §1

SB.msgc-1 [3] = experiment: area under the dose-response curve of % viability (trapezoidal, 11 doses) (% viability x log10 concentration); higher = less cytotoxic; conditions: SB.msgc-1 (sporadic gastric cancer)
Summary of the method: as §1

SB.mhdgc-1 [4] = experiment: as above; conditions: SB.mhdgc-1 (hereditary c.1380delA CDH1 gastric cancer)
Summary of the method: as §1

Structure (SMILES) | viability (SB.msgc-1 [1]) [%] | viability (SB.mhdgc-1 [2]) [%] | area under the dose-response curve (SB.msgc-1 [3]) | area under the dose-response curve (SB.mhdgc-1 [4])
NC(=O)c1ccc(-c2nc(-c3ccc4c(c3)OCO4)c(-c3ccccn3)[nH]2)cc1 (top concentration 46.0829 µM) | 83.7 | 111 | 496 | 585
c1ccc(CNc2nc(NCc3ccccc3)c3ccccc3n2)cc1 (top concentration 46.0829 µM) | 19 | 0.751 | 456 | 448
Clc1ccc2ncc(-c3cccc(NC4CNC4)n3)n2c1 (top concentration 46.0829 µM) | 21.2 | 40.8 | 529 | 450
COc1cccc2c1CCCC2CCCN1CCN(C2CCCCC2)CC1 (stereo unspecified) [PB-28] (top concentration 46.0829 µM) | 60.2 | 9.75 | 529 | 482
CC(C)C[C@H](NC(=O)c1cc2ccccc2s1)C(=O)N1CCN(C(=O)[C@H](CO)N[S+](=O)([O-])c2ccc(Cl)cc2Cl)CC1 (top concentration 46.0829 µM) | 22.9 | 3.53 | 502 | 458
Cc1ccc([S+](=O)([O-])OCC(=O)Nc2ccc(C(=O)O)c(O)c2)cc1 [S31-201] (top concentration 46.0829 µM) | 112 | 89.1 | 509 | 518
c1ccc2c(-c3cnn4cc(-c5ccc(N6CCNCC6)cc5)cnc34)ccnc2c1 (top concentration 46.0829 µM) | 0.609 | 1.33 | 410 | 433
O=C(O)CSCC(=O)NC1CCSC1=O (stereo unspecified) [Erdosteine] (top concentration 46.0829 µM) | 112 | 143 | 547 | 591
O=C(c1ccccc1)c1ccc2n1CCC2C(=O)O (stereo unspecified) [Ketorolac] (top concentration 46.0829 µM) | 37.5 | 31.4 | 408 | 453
C[C@H]1COC/2=C1/C(=O)C(=O)C3=C4CCCC(C)(C)C4=CC=C23 [Cryptotanshinone] (top concentration 46.0829 µM) | 33.4 | 3.87 | 484 | 429
COc1ccc2c(c[n+](C)c3c4cc5c(cc4ccc23)OCO5)c1OC [Chelerythrine chloride] (top concentration 46.0829 µM) | 2.21 | 2.88 | 464 | 441
C=C1C[C@@]2(O)O[C@@]3(C[C@H]2C(C)C)[C@@H](C)CC[C@@H]13 [Curcumol] (top concentration 46.0829 µM) | 120 | 104 | 556 | 587
COC1=CC=C(C=C1)C/2=C/OC3=C(C(=CC(=C3)O)O)C2=O [Biochanin A] (top concentration 46.0829 µM) | 119 | 120 | 575 | 503
COc1ccc(C2(C#N)CCC(C(=O)O)CC2)cc1OC1CCCC1 (stereo unspecified) [Cilomilast] (top concentration 46.0829 µM) | 30.6 | 73.8 | 370 | 535
CNC1CCCN(c2c(F)cc3c(=O)c(C(=O)O)cn(C4CC4)c3c2OC)C1 (stereo unspecified) [Balofloxacin] (top concentration 46.0829 µM) | 51.7 | 85.9 | 525 | 518
CCN(CC)CCNC(=O)c1c(C)[nH]c(/C=C2\C(=O)Nc3ccc(F)cc32)c1C [Sunitinib malate] (top concentration 92.1659 µM) | 3.83 | 1.85 | 458 | 382
O=C(O)c1ccccc1C(=O)Nc1ccc(-c2ccccc2)cc1 [Kartogenin] (top concentration 46.0829 µM) | 115 | 114 | 589 | 567
Cc1cc(CN2CCN(c3c(Br)cnc4[nH]c(-c5ccc(N6CCN(C)CC6)cc5)nc34)CC2)no1 (top concentration 46.0829 µM) | 3.36 | 1.37 | 517 | 440
C[C@@H]1CC[C@@]2(OC1)O[C@H]3C[C@H]4[C@@H]5C/C=C6/C[C@H](CC[C@]6(C)[C@H]5CC[C@]4(C)[C@H]3[C@@H]2C)O[C@@H]7O[C@H](CO)[C@@H](O[C@@H]8O[C@@H](C)[C@H](O)[C@@H](O)[C@H]8O)[C@H](O)[C@H]7O[C@@H]9O[C@@H](C)[C@H](O)[C@@H](O)[C@H]9O [Dioscin] (top concentration 46.0829 µM) | 3.18 | 4.07 | 438 | 428
